The record followed here is ChEMBL document CHEMBL1201862, “PubChem BioAssay data set” (2004).

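Cells were grown in 96-well plates and exposed to each compound for 48 hours at five concentrations; endpoints were interpolated linearly between bracketing concentrations, or set to the highest concentration if not reached. The concentration for 50% growth inhibition is given as GI50.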 Calls of active or inactive are those of the source. Cut-off read from the data, not from the text of the source: active = GI50 up to about 1.1 µM and inactive = higher.

Assay in all cases: growth of human tumour cells (NCI), 48 h
Test [1] deals with SK-MEL-28.
Test [2] relates to M14.
Test [3] has as its system LOX IMVI.
In test [4] the test system is HCC 2998.
The subject of test [5] is SNB-19.
Test [6] relates to SW-620.
The subject of test [7] is IGROV-1.
Test [8] deals with HCT-15.
Test [9] deals with SNB-75.
Test [10] relates to NCI-H460.
The subject of test [11] is KM12.
The subject of test [12] is OVCAR-3.
Test [13] deals with COLO 205.
The subject of test [14] is UACC-257.
For test [15], the system named is OVCAR-5.
The subject of test [16] is SK-OV-3.
Test [17] has as its system HOP-92.
Test [18] deals with SK-MEL-5.
Test [19] deals with SF-268.
Test [20] relates to SF-539.

Consider `O=c1ccn(COC(COCc2ccccc2)COCc2ccccc2)c(=O)[nH]1`, for which the GI50 in [1], in [2], in test [3], in test [4], in [5] and in test [6] was > 100 µM (inactive) in each case. The GI50 in test [7] is > 100 µM (inactive); in test [8], over 100 µM; in test [9], > 100 µM (inactive); in test [10], > 100 µM (inactive); in [11], > 100 µM (inactive); in test [12] it was > 100 µM (inactive). Also, the GI50 was > 100 µM (inactive) in test [13]; > 100 µM (inactive) in [14]; > 100 µM (inactive) in [15]; > 100 µM (inactive) in test [16]; > 100 µM (inactive) in test [17]; 76.4 µM (inactive) in test [18].

Take `C[C@H]1C(=O)O[C@@H]1[C@H]1COC(C)(C)O1`: the GI50 in [1], in [2], in [4], in [19], in [5] and in [6] was > 100 µM (inactive) each time. The GI50 in [8] is over 100 µM; in test [9], 82 µM (inactive); in test [10], > 100 µM (inactive); in [11], > 100 µM (inactive); in [12] it was > 100 µM (inactive); in [20], > 100 µM (inactive). In addition, the GI50 in [14], in test [15], in [16] and in test [17] was > 100 µM (inactive) throughout.

As to `CCOc1ccc(/C(C=O)=C(\Cl)c2ccc(OC)c(OC)c2)cc1`, the GI50 was > 100 µM (inactive) in [1]; > 100 µM (inactive) in test [2]; > 100 µM (inactive) in [3]; 42.6 µM (inactive) in [19]; > 100 µM (inactive) in test [5]; > 100 µM (inactive) in [6]. For the same compound, the GI50 in test [7] is > 100 µM (inactive); in test [8], over 100 µM; in test [10], > 100 µM (inactive); in test [12] it was > 100 µM (inactive); in test [13] it was > 100 µM (inactive); in test [20], 83.2 µM (inactive). For the same compound, the GI50 in [16] was > 100 µM (inactive); in test [17], > 100 µM (inactive); in test [18], 77.3 µM (inactive).

For `O=C(/C=N/c1ccccc1S)c1ccco1`, the GI50 in test [1] is 15.8 µM (inactive); in [19] it was 18.7 µM (inactive); in test [5] it was 4.74 µM (inactive); in test [6], 14.7 µM (inactive); in test [7] it was 9.33 µM (inactive); in [8] it was 7.66 µM. The GI50 was 16.3 µM (inactive) in test [11]; 17.1 µM (inactive) in test [12]; 17.2 µM (inactive) in test [13]; 14.1 µM (inactive) in [20]; 17.7 µM (inactive) in test [14]; 17.3 µM (inactive) in test [18].

On to `COc1cc(/C=C/C(=O)Oc2ccc(NC(C)=O)cc2)ccc1C(=O)O/C=C/c1ccccc1`, for which the GI50 in test [1], in test [3], in [4], in test [19], in [5] and in test [6] was > 100 µM (inactive) in each case. For the same compound, the GI50 in [7] was > 100 µM (inactive); in test [8], over 100 µM; in test [9], > 100 µM (inactive); in test [10], > 100 µM (inactive); in [11], > 100 µM (inactive); in [12] it was > 100 µM (inactive). For the same compound, the GI50 in test [13], in [20], in [14], in test [15], in [16] and in [17] was > 100 µM (inactive) in each case. Moreover, the GI50 in test [18] was > 100 µM (inactive).

`CC(C)(C)OC(=O)NCC(=O)NC1C/C(=N\O)c2sccc21` (configuration not stated): the GI50 in test [1], in test [2], in test [3], in test [4], in test [19] and in test [5] was > 100 µM (inactive) in each case. Moreover, the GI50 is > 100 µM (inactive) in test [6]; > 100 µM (inactive) in [7]; over 100 µM in [8]; > 100 µM (inactive) in test [9]; > 100 µM (inactive) in test [10]; > 100 µM (inactive) in [12]. Further, the GI50 in test [13], in [20], in [14], in [15], in test [16] and in [18] was > 100 µM (inactive) throughout.

On to `O=c1[nH]c(-c2ccc(Cl)cc2)cc2ccsc12`, for which the GI50 in test [1] is 5.15 µM (inactive); in [2] it was 3.48 µM (inactive); in [3] it was 4.36 µM (inactive); in [4], 2.31 µM (inactive); in test [19], 9.23 µM (inactive); in test [5] it was 2.49 µM (inactive). In addition, the GI50 in test [6] was 4.69 µM (inactive); in test [7], 3.49 µM (inactive); in [8] it was 2.26 µM; in [9], 3.66 µM (inactive); in test [10] it was 4.74 µM (inactive); in test [11], 3.21 µM (inactive). For the same compound, the GI50 in test [12] is 1.66 µM (inactive); in [13] it was 9.82 µM (inactive); in test [14], 0.662 µM (active); in test [15], 6.34 µM (inactive); in test [16], 4.9 µM (inactive); in test [17], 10.6 µM (inactive). Besides, the GI50 in [18] is 4.41 µM (inactive).

`COc1ccc(C[C@H](N)C(=O)N2C[C@H](CO)C[C@H](n3ccc(=O)[nH]c3=O)C2)cc1`: the GI50 in [1], in [2], in test [3], in test [4], in test [19] and in test [5] was > 100 µM (inactive) throughout. Also, the GI50 is > 100 µM (inactive) in test [6]; > 100 µM (inactive) in [7]; over 100 µM in test [8]; > 100 µM (inactive) in test [10]; > 100 µM (inactive) in test [11]; > 100 µM (inactive) in test [12]. Moreover, the GI50 in test [13], in test [20], in test [15], in test [16], in [17] and in test [18] was > 100 µM (inactive) in each case.

On to `CCOC(=O)NC(Nc1ccc(Cl)cn1)(C(F)(F)F)C(F)(F)F`, for which the GI50 in [1], in test [2], in test [3], in [4], in test [19] and in test [5] was > 100 µM (inactive) each time. The GI50 was over 100 µM in test [8]; > 100 µM (inactive) in [9]; > 100 µM (inactive) in test [10]; > 100 µM (inactive) in [11]; > 100 µM (inactive) in test [12]; > 100 µM (inactive) in [20]. In addition, the GI50 in test [14], in test [15] and in [16] was > 100 µM (inactive) in each case.

For `O=C1Sc2sc(=S)sc2SC1c1ccccc1` (configuration not stated), the GI50 in [1] is > 45.6 µM (inactive); in test [3] it was 30.8 µM (inactive); in [4], > 89.7 µM (inactive); in [19], 46.6 µM (inactive); in test [5], > 73.1 µM (inactive); in test [6] it was 21.1 µM (inactive). In addition, the GI50 in [7] is > 100 µM (inactive); in [8], 19.4 µM; in test [9], > 50.2 µM (inactive); in [10], 80.7 µM (inactive); in test [11] it was > 80.9 µM (inactive); in test [12] it was 29.8 µM (inactive). The GI50 was 37.2 µM (inactive) in test [13]; 74 µM (inactive) in test [20]; > 74.3 µM (inactive) in test [14]; > 100 µM (inactive) in [15]; > 100 µM (inactive) in test [16]; 36.6 µM (inactive) in test [17]. Besides, the GI50 in [18] was > 100 µM (inactive).

Turning to `O=C1c2ccccc2C(=O)N1CC(O)COc1cccc2ccccc12` (configuration not stated), the GI50 in [1] is > 100 µM (inactive); in test [2] it was > 100 µM (inactive); in [3] it was > 100 µM (inactive); in test [4], > 100 µM (inactive); in test [19], 85.3 µM (inactive); in test [5] it was > 100 µM (inactive). In addition, the GI50 in test [6] was > 100 µM (inactive); in [7], > 100 µM (inactive); in test [8], over 100 µM; in test [10] it was > 100 µM (inactive); in [12], > 100 µM (inactive); in test [13], > 100 µM (inactive). Further, the GI50 was > 100 µM (inactive) in test [14], > 100 µM (inactive) in test [15], > 100 µM (inactive) in test [16] and 63.5 µM (inactive) in [18].

For the compound `CCC(C)C1NC(=O)C2CCCN2C(=O)C(CC2CO2)OC(=O)CCNC(=O)C(C)N(C)C(=O)C(C(C)C)N(C)C1=O` (configuration not stated), the GI50 in [1] is > 100 µM (inactive); in test [2] it was 0.0182 µM (active); in test [3], < 0.0208 µM (active); in test [4], 21.8 µM (inactive); in [5] it was > 13.4 µM (inactive); in [6] it was 0.0478 µM (active). Also, the GI50 was 2.14 µM (inactive) in [7]; 12.8 µM in test [8]; 0.331 µM (active) in test [9]; 1.06 µM (active) in [11]; < 0.0236 µM (active) in test [13]; 0.199 µM (active) in [20]. Also, the GI50 in test [14] was < 0.01 µM (active); in [15], 1.43 µM (inactive); in test [16], > 100 µM (inactive); in test [17], > 8.22 µM (inactive); in test [18], < 0.0169 µM (active).
